≈ marks a conversion by molar mass, not a printed value. Structures can show the parent of a compound that is named as a salt.
Tests used:
[1] = test system: Bacillus subtilis No. 10707; experiment: MIC by agar dilution method at pH 8.0, Bacillus subtilis No. 10707; format: cell-based; settings: read-out: Minimum Inhibitory Concentration
From the text: (§1) Table 4 illustrates the antibacterial spectra of XK-62-3 and XK-62-4 against various microorganisms.
(§2) (Minimum Inhibitory Concentration, γ/ml
(§3) measured by agar dilution method at pH 8.0)

[2] = test system: Staphylococcus aureus ATCC 6538P; experiment: MIC by agar dilution method at pH 8.0, Staphylococcus aureus ATCC 6538P; format: cell-based; settings: ATCC6538P, read-out: Minimum Inhibitory Concentration
From the text: as §1, §2, §3

[3] = test system: Klebsiella pneumoniae ATCC 10031; experiment: MIC by agar dilution method at pH 8.0, Klebsiella pneumoniae ATCC 10031; format: cell-based; settings: ATCC10031, read-out: Minimum Inhibitory Concentration
From the text: as §1, §2, §3

[4] = test system: Klebsiella pneumoniae KY 4261; experiment: MIC by agar dilution method at pH 8.0, Klebsiella pneumoniae KY 4261; format: cell-based; settings: KY4261, read-out: Minimum Inhibitory Concentration
From the text: as §1, §2, §3

[5] = test system: Escherichia coli ATCC 26; experiment: MIC by agar dilution method at pH 8.0, Escherichia coli ATCC 26; format: cell-based; settings: ATCC26, read-out: Minimum Inhibitory Concentration
From the text: as §1, §2, §3

[6] = test system: Escherichia coli KY 8310; experiment: MIC by agar dilution method at pH 8.0, Escherichia coli KY 8310; format: cell-based; settings: KY8310, read-out: Minimum Inhibitory Concentration
From the text: as §1, §2, §3

[7] = test system: Escherichia coli KY 8327; experiment: MIC by agar dilution method at pH 8.0, Escherichia coli KY 8327; format: cell-based; settings: KY8327, pH 8, read-out: Minimum Inhibitory Concentration
From the text: as §1, §2, §3

[8] = test system: Escherichia coli KY 8348; experiment: MIC by agar dilution method at pH 8.0, Escherichia coli KY 8348; format: cell-based; settings: KY8348, Escherichia coli KY 8348, resistant to gentamicin, AAC(3)-I, read-out: Minimum Inhibitory Concentration
From the text: as §1, §2, §3

[9] = test system: Escherichia coli KY 8356; experiment: MIC by agar dilution method at pH 8.0, Escherichia coli KY 8356; format: cell-based; settings: KY8356, read-out: Minimum Inhibitory Concentration
From the text: as §1, §2, §3

[10] = test system: Pseudomonas aeruginosa BMH No. 1; experiment: MIC by agar dilution method at pH 8.0, Pseudomonas aeruginosa BMH No. 1; format: cell-based; settings: BMHNO.1, read-out: Minimum Inhibitory Concentration
From the text: as §1, §2, §3

[11] = test system: Pseudomonas aeruginosa KY 8563; experiment: MIC by agar dilution method at pH 8.0, Pseudomonas aeruginosa KY 8563; format: cell-based; settings: KY8563, Pseudomonas aeruginosa KY 8563, resistant to gentamicin, AAC(3)-II, read-out: Minimum Inhibitory Concentration
From the text: as §1, §2, §3

[12] = test system: Pseudomonas aeruginosa KY 8511; experiment: MIC by agar dilution method at pH 8.0, Pseudomonas aeruginosa KY 8511; format: cell-based; settings: KY8511, Pseudomonas aeruginosa KY 8511, resistant to gentamicin, AAC(3)-I, read-out: Minimum Inhibitory Concentration
From the text: as §1, §2, §3

[13] = test system: Pseudomonas aeruginosa Z 444; experiment: MIC by agar dilution method at pH 8.0, Pseudomonas aeruginosa Z 444; format: cell-based; settings: Z444, Pseudomonas aeruginosa Z 444, resistant to gentamicin, AAC(6')-III, read-out: Minimum Inhibitory Concentration
From the text: as §1, §2, §3

[14] = test system: Proteus vulgaris ATCC 6897; experiment: MIC by agar dilution method at pH 8.0, Proteus vulgaris ATCC 6897; format: cell-based; settings: ATCC6897, read-out: Minimum Inhibitory Concentration
From the text: as §1, §2, §3

[15] = test system: Shigella sonnei ATCC 9290; experiment: MIC by agar dilution method at pH 8.0, Shigella sonnei ATCC 9290; format: cell-based; settings: ATCC9290, read-out: Minimum Inhibitory Concentration
From the text: as §1, §2, §3

[16] = test system: Salmonella typhosa ATCC 9992; experiment: MIC by agar dilution method at pH 8.0, Salmonella typhosa ATCC 9992; format: cell-based; settings: Salmonella enterica, pH 8, read-out: Minimum Inhibitory Concentration
From the text: as §1, §2, §3

[17] = test system: Serratia marcescens KY 4248; experiment: MIC by agar dilution method at pH 8.0, Serratia marcescens KY 4248; format: cell-based; settings: KY4248, read-out: Minimum Inhibitory Concentration
From the text: as §1, §2, §3

[18] = test system: Providenicia sp. KY 8464; experiment: MIC by agar dilution method at pH 8.0, Providenicia sp. KY 8464; format: cell-based; settings: read-out: Minimum Inhibitory Concentration
From the text: as §1, §2, §3

[19] = Acute toxicity in dd-mice; settings: mouse, in vivo
[20] = Solubility of the free base; format: physicochemical; settings: for solubility in organic solvents: chloroform, benzene, ethyl acetate, butyl acetate, ether, butanol, petroleum ether, n-hexane
[21] = test system: Bacillus subtilis No. 10707; experiment: Activity (units) of purified preparate; format: cell-based; settings: for activity: per mg not given, Examples 2D, 3, 4
Method: The activity of the eluate is determined against Bacillus subtilis No. 10707 by a paper disk method using an agar plate. Active fractions are combined and concentrated in vacuo to about 3 L. The concentrate is adjusted to pH 8.0 with 6 N sulfuric acid and passed through a column packed with 3 L of an anion exchange resin, Dowex 1×2 (OH^- form). The column is washed with about 20 L of water and active principles are eluted with 1 N aqueous ammonia. The active fractions are combined and concentrated to 1/10 by volume. The pH of the concentrate is adjusted to 10.5 with 6 N sodium hydroxide and 4 volumes of acetone is added thereto. The resulting precipitate is removed by filtration and the acetone layer is concentrated to 2 L. The concentrate is adjusted to pH 4.5 with 6 N sulfuric acid and then 10 L of methanol is added thereto. After cooling, a white precipitate is obtained. The precipitate is separated by filtration and washed with methanol. After drying in vacuo, about 250 g of white powder (sulfate form) is obtained.
The residue is dissolved in a small amount of water and the solution is freeze-dried to obtain about 1.5 g of purified preparate of the free base of XK-62-3.
The residue is dissolved in a small amount of water and the solution is freeze-dried to obtain about 2.2 g of purified preparate of the free base of XK-62-4.
After the completion of fermentation, the culture liquor is adjusted to pH 2.0 with 12 N sulfuric acid and stirred for 30 minutes. Then, about 20 kg of Radiolite No. 600 (filter aid) is added thereto and the microbial cells are removed by filtration. The filtrate is adjusted to pH 8.0 with 6 N sodium hydroxide and passed through a column packed with 100 L of a cation exchange resin, Amberlite IRC-50 (NH4^+ form). After washing the resin with water, the active substances are eluted out with 1 N aqueous ammonia. The eluate is obtained in fractions and the activity of each of the fractions is determined against Bacillus subtilis No. 10707 by a paper disc method using an agar plate. The eluate is concentrated to 2 L under reduced pressure. The concentrate is adjusted to pH 4.5 with 6 N sulfuric acid and the resulting insoluble substance is removed by filtration. To the filtrate 20 L of methanol is added to form a white precipitate. The precipitate is separated by filtration and washed with methanol. After drying in vacuo, 500 g of white powder, of a crude XK-62 series (sulfate form) is obtained.

[22] = test system: Gram-positive and Gram-negative bacteria; experiment: Antibacterial activity against a broad range of bacteria (in words); format: cell-based
From the text: as §1, §2, §3

[23] = test system: resistant strains of Escherichia coli and Pseudomonas aeruginosa (3-N-acetylation, 2"-adenylation); experiment: Antibacterial activity against resistant strains with 3-N-acetylation, 2"-adenylation (in words); format: cell-based; settings: E. coli and P. aeruginosa resistant by 3-N-acetylation, etc.
From the text: as §1, §2, §3

[24] = test system: Escherichia coli KY 8332; experiment: MIC by agar dilution method at pH 8.0, Escherichia coli KY 8332; format: cell-based; settings: KY8332, Escherichia coli KY 8332, resistant to kanamycin, AAC(6')-I, read-out: Minimum Inhibitory Concentration
From the text: as §1, §2, §3

[25] = test system: Pseudomonas aeruginosa Z 445; experiment: MIC by agar dilution method at pH 8.0, Pseudomonas aeruginosa Z 445; format: cell-based; settings: Z445, Pseudomonas aeruginosa Z 445, resistant to gentamicin, AAC(6')-III, read-out: Minimum Inhibitory Concentration
From the text: as §1, §2, §3

[26] = test system: resistant strains of Escherichia coli and Pseudomonas aeruginosa (6'-N-acetylation); experiment: Antibacterial activity against resistant strains with 6'-N-acetylation (in words); format: cell-based; settings: E. coli and P. aeruginosa resistant by 6'-N-acetylation, etc.
From the text: as §1, §2, §3

[27] = test system: resistant strains of Escherichia coli and Pseudomonas aeruginosa (6'-N-acetylation); settings: strains with 6'-N-acetylation, etc.; known antibiotics; cited from earlier work
[28] = test system: resistant strains of Escherichia coli and Pseudomonas aeruginosa (3-N-acetylation, 2"-adenylation); settings: strains with 3-N-acetylation, etc., known antibiotics; cited from earlier work
[29] = free base, Example 1, 1 mg of pure preparate corresponds to 1000 units

Compound: CNC1CC(N)C(OC2OCC(C)(O)C(NC)C2O)C(O)C1OC1OC(CN)CCC1N (stereo not shown) [XK-62-3]
- MIC [1]: < 0.0011 mg/L
- MIC [2]: 0.0021 mg/L (≈ 0.00453 µM)
- MIC [3]: 0.0082 mg/L (≈ 0.0177 µM)
- MIC [4]: 0.066 mg/L (≈ 0.142 µM)
- MIC [5]: 0.066 mg/L (≈ 0.142 µM)
- MIC [6]: 0.066 mg/L (≈ 0.142 µM)
- MIC [7]: 0.066 mg/L (≈ 0.142 µM)
- MIC [8]: 0.033 mg/L (≈ 0.0712 µM)
- MIC [9]: 0.26 mg/L (≈ 0.561 µM)
- MIC [10]: 0.26 mg/L (≈ 0.561 µM)
- MIC [11]: 0.25 mg/L (≈ 0.539 µM)
- MIC [12]: 0.26 mg/L (≈ 0.561 µM)
- MIC [13]: > 10 mg/L
- MIC [14]: 0.26 mg/L (≈ 0.561 µM)
- MIC [15]: 0.13 mg/L (≈ 0.28 µM)
- MIC [16]: 0.033 mg/L (≈ 0.0712 µM)
- MIC [17]: 1.52 mg/L (≈ 3.28 µM)
- MIC [18]: 1.04 mg/L (≈ 2.24 µM)
- LD50 [19]: 106 mg/kg
- solubility in organic solvents [20]: insoluble
- solubility in ethanol and acetone [20]: slightly soluble
- solubility in methanol [20]: soluble
- solubility in water [20]: very soluble
- activity of purified preparate ([21]; Example 2): 970 units/mg
- activity of purified preparate [21, 29]: about 985 unit/mg
- antibacterial activity [22]: very strong antibacterial activity
- antibacterial activity against certain resistant strains [23]: strong antibacterial activity

Compound: CNC1C(O)C(OC2C(N)CC(N)C(OC3OC(CN(C)C)CCC3N)C2O)OCC1(C)O (stereo not shown) [XK-62-4]
- MIC [1]: < 0.0011 mg/L
- MIC [2]: 0.0021 mg/L (≈ 0.0044 µM)
- MIC [3]: 0.0082 mg/L (≈ 0.0172 µM)
- MIC [4]: 0.066 mg/L (≈ 0.138 µM)
- MIC [5]: 0.033 mg/L (≈ 0.0691 µM)
- MIC [6]: 0.066 mg/L (≈ 0.138 µM)
- MIC [24]: 0.033 mg/L (≈ 0.0691 µM)
- MIC [10]: 0.26 mg/L (≈ 0.544 µM)
- MIC [11]: > 10 mg/L
- MIC [13]: 0.26 mg/L (≈ 0.544 µM)
- MIC [25]: 0.26 mg/L (≈ 0.544 µM)
- MIC [14]: 0.13 mg/L (≈ 0.272 µM)
- MIC [15]: 0.066 mg/L (≈ 0.138 µM)
- MIC [16]: 0.011 mg/L (≈ 0.023 µM)
- MIC [17]: 0.26 mg/L (≈ 0.544 µM)
- LD50 [19]: 25.9 mg/kg
- solubility in organic solvents [20]: insoluble
- solubility in ethanol and acetone [20]: slightly soluble
- solubility in methanol [20]: soluble
- solubility in water [20]: very soluble
- activity of purified preparate [21, 29]: about 980 unit/mg
- activity [21]: 970 units
- antibacterial activity [22]: very strong antibacterial activity
- antibacterial activity against certain resistant strains [26]: strong antibacterial activity

Compound: NC[C@@H]1CC[C@@H](N)[C@@H](O[C@H]2[C@H](O)[C@@H](O[C@H]3O[C@H](CO)[C@@H](O)[C@H](N)[C@H]3O)[C@H](N)C[C@@H]2N)O1 [dibekacin, 3,4-dideoxy kanamycin B]
- effect on resistant strains [27]: ineffective

Compound: NCC1OC(OC2C(N)CC(N)C(OC3OC(CO)C(O)C(N)C3O)C2O)C(O)C(O)C1O (stereo not shown) [kanamycin A]
- effect on resistant strains [27]: ineffective

Compound: NC[C@H]1O[C@H](O[C@H]2[C@H](O)[C@@H](O[C@H]3O[C@H](CO)[C@@H](O)[C@H](N)[C@H]3O)[C@H](N)C[C@@H]2N)[C@H](O)[C@@H](O)[C@@H]1O [kanamycin]
- effect on resistant strains [28]: ineffective

Compound: CNCC1CCC(N)C(OC2C(N)CC(N)C(OC3OCC(C)(O)C(NC)C3O)C2O)O1 (stereo not shown) [sagamicin (antibiotic XK-62-2)]
- effect on resistant strains [28]: ineffective

Compound: CN[C@@H]1[C@@H](O)[C@@H](O[C@@H]2[C@@H](O)[C@H](O[C@H]3OC(CN)=CC[C@H]3N)[C@@H](N)C[C@H]2N)OC[C@]1(C)O [sisomicin]
- effect on resistant strains [27]: ineffective

Compound: CNC1CC(N)C(OC2OCC(C)(O)C(NC)C2O)C(O)C1OC1OC(CN)CCC1N (stereo not shown) [sulfate salt of XK-62-3]
- activity [21]: about 630 units

Compound: CNC1C(O)C(OC2C(N)CC(N)C(OC3OC(CN(C)C)CCC3N)C2O)OCC1(C)O (stereo not shown) [sulfate salt of XK-62-4]
- activity [21]: about 625 units

Reference: patent publication US4298690A, “Antibiotics XK-62-3 and XK-62-4 and process for production thereof” (Kyowa Hakko Kogyo Co., Ltd., priority 1977, dated 1981)
